Marks after values point to notes of the source that are not given here.
What was measured:
[1] = tested on: S. epidermidis ATCC 35984; assay: MIC/MBC microdilution; assay type: cell-based, Staphylococcus epidermidis
Method: (§1) The minimum inhibitory concentration (MIC) of the tested monomeric QAS was performed using the microdilution method according to CLSI recommendation (M27-A3). Concentrations from 10 to 1280 µM were analyzed. Strains were incubated with or without compounds (growth control) for 24 h at 37 °C. Three independent replicates were performed. The MIC value was determined spectrophotometrically and the concentration that inhibited more than 90% of growth was determined. Optical density was measured at λ = 590 nm using a 96-well microplate reader (Bio-Rad Universal Hood II).
(§2) To determine the minimum bactericidal concentration (MBC), 10 µL of bacterial suspension incubated with monomeric QAS (MIC concentration and two times higher) was transferred to plates with LB (1% tryptone, 1% yeast extract, 0.5% NaCl) medium. […] The concentration that reduced 99.9% of microbial growth was determined as MBC[54].

[2] = tested on: S. epidermidis B374; assay: MIC/MBC microdilution; assay type: cell-based, Staphylococcus epidermidis; details: S. epidermidis B374; for Minimal bactericidal concentration (*MBC): 99.9% reduction; for Minimal inhibitory concentration (MIC): 24 h, 37 °C, >90% growth inhibition
Method: as §1, §2

[3] = tested on: S. epidermidis SI8; assay: MIC/MBC microdilution; assay type: cell-based, Staphylococcus epidermidis
Method: as §1, §2

[4] = tested on: S. aureus ATCC 6538; assay: MIC/MBC microdilution; assay type: cell-based, Staphylococcus aureus; details: S. aureus ATCC 6538; for Minimal bactericidal concentration (*MBC): 99.9% reduction; for Minimal inhibitory concentration (MIC): 24 h, 37 °C, >90% growth inhibition
Method: as §1, §2

[5] = tested on: S. aureus MRSA R98; assay: MIC/MBC microdilution; assay type: cell-based, Staphylococcus aureus; details: for Minimal bactericidal concentration (*MBC): 99.9% reduction; for Minimal inhibitory concentration (MIC): 24 h, 37 °C, >90% growth inhibition
Method: as §1, §2

[6] = tested on: E. coli ATCC 11229; assay: MIC/MBC microdilution; assay type: cell-based, Escherichia coli; details: E. coli ATCC 11229; for MBC: 99.9% reduction, read-out: Minimal bactericidal concentration (*MBC); for MIC: 24 h, 37 °C, >90% growth inhibition, read-out: Minimal inhibitory concentration (MIC)
Method: as §1, §2

[7] = tested on: E. coli H64; assay: MIC/MBC microdilution; assay type: cell-based, Escherichia coli
Method: as §1, §2

[8] = tested on: P. aeruginosa ATCC 27853; assay: MIC/MBC microdilution; assay type: cell-based, Pseudomonas aeruginosa
Method: as §1, §2

[9] = tested on: P. aeruginosa PAO1; assay: MIC/MBC microdilution; assay type: cell-based, Pseudomonas aeruginosa
Method: as §1, §2

[10] = Critical micelle concentration by conductometric measurements; assay type: physicochemical; details: aqueous solution, 25 °C
Method: Values of critical micelle concentrations (CMC) of cationic surfactants were measured conductrometrically. N5721 conductometer (Tel-Eko Projekt sp z o.o., Poland), equipped with N5981 probe, was calibrated using 0.1 M, 0.01 M and 0.001 M KCl aqueous solutions (conductivities equal to 1.287 S/m, 0.141 S/m and 0.0147 S/m, respectively) and used without temperature compensation mode (constant temperature 25 °C was kept during all calibration procedures and measurements). Values of specific conductivities of at least 15 different concentrations for each surfactant were measured and plotted versus concentration; the discontinuity point was used to determine critical micelle concentration.

[11] = tested on: S. epidermidis ATCC 35984; assay: Adhesion to stainless steel; assay type: cell-based, Staphylococcus epidermidis; details: 160 µM
[12] = tested on: P. aeruginosa PAO1; assay: Adhesion to stainless steel; assay type: cell-based, Pseudomonas aeruginosa
[13] = tested on: S. epidermidis B374; assay: Adhesion to polystyrene plate; assay type: cell-based, Staphylococcus epidermidis; details: 160 µM
Method: (§3) Adhesion analysis to polystyrene surfaces was determined according to the method of Rodrigues et al. with modifications. Polystyrene 96-well plates were incubated with the respective compound concentrations (10–1280 µM) for 4 h at 37 °C with 100 rpm shaking. The plates were then washed with miliQ and inoculated with 100 µL of bacterial suspension (OD = 0.4–0.6). Plates were incubated for 6 h at 37 °C with 100 rpm shaking. Wells were rinsed and fixed for 20 min at 60 °C. They were then […] with 0.1% crystal violet solution for 5 min. The wells were washed with miliQ until the unfixed dye was completely eluted. The absorbance at λ = 590 nm was measured using a reader (Bio-Rad Universal Hood II). The positive control was a surface not treated with QAS. Three independent trials were performed.

[14] = tested on: S. epidermidis B374 biofilm; assay: Biofilm eradication; assay type: cell-based, Staphylococcus epidermidis; details: 160 µM, 4 h
Method: (§4) Biofilm eradication assay was performed according to the method of Christensen et al. with modifications. A standardized bacterial (OD = 0.6) suspension of 100 µL was spotted into a 96-well polystyrene plate. They were incubated for 24 h at 37 °C. Cultures were removed, the plate was washed and then concentrations of QAS ([…]) were added, incubated for 4 h at 37 °C with 100 rpm shaking. The wells were washed with miliQ and fixed at 60 °C for 20 min. The wells were […] with 0.1% crystal violet solution for 5 min. The wells were washed with miliQ until the unfixed dye was completely eluted. The absorbance at λ = 590 nm was measured using a reader (Bio-Rad Universal Hood II). The positive control was an untreated biofilm. Three independent test trials were performed.

[15] = tested on: P. aeruginosa PAO1 biofilm; assay: Biofilm eradication; assay type: cell-based, Pseudomonas aeruginosa; details: 20 µM, 4 h
Method: as §4

[16] = tested on: S. epidermidis B374 biofilm; assay: Biofilm-oriented antiseptics test (BOAT); assay type: cell-based, Staphylococcus epidermidis; details: 640 µM
From the text: Colonies were then counted.

[17] = tested on: Salmonella typhimurium TA100; assay: Mutagenicity (Ames test); assay type: cell-based; details: for Number of colonies: ± SD
Method: (§5) Two reference strains of Salmonella Typhimurium TA98 and Salmonella Typhimurium TA100, deficient in histidine synthesis, were used for this study according to the method proposed by Ames et al. with modifications. […] The mixture was mixed and poured onto a Davis minimal medium plate. The mixture without the test compound was used as a negative control. The positive control was a mixture of bacterial culture, biotin-histidine solution, and sodium azide (at a concentration of 15 μg/mL for strain TA100) or acriflavine (at a concentration of 100 μg/mL for strain TA98). Plates were incubated for 48 h at 37 °C, and then colonies were counted. The mutagenicity ratio (MR), the ratio of the number of revertants grown in the presence of the test compound to the number of spontaneously occurring revertants (negative control), was calculated. A mutagenic ratio equal to or greater than 1.7 indicates the mutagenic potential of the tested compounds. The study was performed in three times.

[18] = tested on: Salmonella typhimurium TA98; assay: Mutagenicity (Ames test); assay type: cell-based; details: for Number of colonies: ± SD
Method: as §5

[19] = tested on: S. epidermidis B374; assay: Adhesion to stainless steel; assay type: cell-based, Staphylococcus epidermidis; details: Staphylococcus epidermidis, 1280 µM, ranges given over several strains
[20] = tested on: S. epidermidis ATCC 35984; assay: Adhesion to polystyrene plate; assay type: cell-based, Staphylococcus epidermidis; details: concentration not given
Method: as §3

[21] = tested on: P. aeruginosa PAO1; assay: Adhesion to polystyrene plate; assay type: cell-based, Pseudomonas aeruginosa; details: concentration not given
Method: as §3

[22] = tested on: P. aeruginosa PAO1; assay: Adhesion to glass; assay type: cell-based, Pseudomonas aeruginosa; details: concentration not given
[23] = tested on: S. epidermidis ATCC 35984 biofilm; assay: Biofilm eradication; assay type: cell-based, Staphylococcus epidermidis; details: 10 µM, 4 h
Method: as §4

[24] = 24 h, 37 °C, >90% growth inhibition

Compound	Minimal bactericidal concentration (*MBC) [2]	Minimal inhibitory concentration (MIC) [2]	Minimal bactericidal concentration (*MBC) [4]	Minimal inhibitory concentration (MIC) [4]	Minimal bactericidal concentration (*MBC) [5]	Minimal inhibitory concentration (MIC) [5]	MBC [6] [µM]	MIC [6] [µM]	CMC [10] [mol/L]	reduction of adhesion to stainless steel [11]	reduction of adhesion to polystyrene [13]	biofilm eradication [15]	Number of colonies ([17]; ¼ MIC)	Mutagenicity index ([17]; ½ MIC)	Number of colonies ([17]; ½ MIC)	Mutagenicity index ([18]; ¼ MIC)	Number of colonies ([18]; ¼ MIC)	Mutagenicity index ([18]; ½ MIC)	Number of colonies ([18]; ½ MIC)	further results
CC(=O)[O-].CCCCCCCCCCCCCCCC(=O)N(C)CCC[N+](C)(C)C [AcC16]	40 *40 µM	40 *40 µM	80 *80 µM	80 *80 µM	10 *10 µM	10 *10 µM	160	80	0.0016	approximately 93%	approximately 44%	50–60%	107.5 ± 2.1	0.66	132.5 ± 13.4	0.93	23.7 ± 4.7	1.11	28.3 ± 6.4	MBC ([1]; Staphylococcus epidermidis, ATCC35984, 99.9% reduction, read-out: Minimal bactericidal concentration (*MBC)): 640 µM; MIC ([1]; Staphylococcus epidermidis, ATCC35984, 24 h, 37 °C, >90% growth inhibition, read-out: Minimal inhibitory concentration (MIC)): 640 µM; MBC ([3]; Staphylococcus epidermidis, 99.9% reduction, read-out: Minimal bactericidal concentration (*MBC)): 10 µM; MIC ([3]; Staphylococcus epidermidis, 24 h, 37 °C, >90% growth inhibition, read-out: Minimal inhibitory concentration (MIC)): 10 µM; MIC ([7]; Escherichia coli, H64, 24 h, E. coli H64, 24 h, 37 °C, >90% growth inhibition, read-out: Minimal inhibitory concentration (MIC)): 160 µM; MBC ([7]; Escherichia coli, H64, E. coli H64, 99.9% reduction, read-out: Minimal bactericidal concentration (*MBC)): 320 µM; MIC ([8]; Pseudomonas aeruginosa, ATCC27853, 24 h, P. aeruginosa ATCC 27853, 24 h, 37 °C, >90% growth inhibition, read-out: Minimal inhibitory concentration (MIC)): > 1280 µM; MBC ([8]; Pseudomonas aeruginosa, ATCC27853, P. aeruginosa ATCC 27853, 99.9% reduction, read-out: Minimal bactericidal concentration (*MBC)): > 1280 µM; MBC ([9]; Pseudomonas aeruginosa, 99.9% reduction, read-out: Minimal bactericidal concentration (*MBC)): > 1280 µM; MIC ([9]; Pseudomonas aeruginosa, 24 h, 37 °C, >90% growth inhibition, read-out: Minimal inhibitory concentration (MIC)): > 1280 µM; reduction of adhesion to stainless steel ([12]; P. aeruginosa PAO1, 160 µM): 58%; biofilm eradication [14]: 70–80%; cell survival in biofilm (BOAT) ([16]; 30 min): 30%; cell survival in biofilm (BOAT) ([16]; 60 min): 9.5%; Mutagenicity index ([17]; ¼ MIC): 0.54
CCCCCCCCCCCCCCCC(=O)N(C)CCC[N+](C)(C)C.[Br-] [BrC16]	10 *10 µM	10 *10 µM	320 *320 µM	320 *320 µM	320 *320 µM	320 *320 µM	1280	640	0.00073	77%	approximately 85%	50–60%	151.3 ± 3.5	1.06	134 ± 1	2.76	70.5 ± 12	1.84	47 ± 14.1	Minimal bactericidal concentration (*MBC) ([1]; 99.9% reduction): 640 *640 µM; Minimal inhibitory concentration (MIC) [1, 24]: 640 *640 µM; Minimal bactericidal concentration (*MBC) ([3]; 99.9% reduction): 10 *10 µM; Minimal inhibitory concentration (MIC) [3, 24]: 10 *10 µM; Minimal bactericidal concentration (*MBC) ([7]; E. coli H64, 99.9% reduction): 160 *160 µM; Minimal inhibitory concentration (MIC) ([7]; E. coli H64, 24 h, 37 °C, >90% growth inhibition): 160 *160 µM; Minimal bactericidal concentration (*MBC) ([8]; P. aeruginosa ATCC 27853, 99.9% reduction): > 1280 * > 1280 µM; Minimal inhibitory concentration (MIC) ([8]; P. aeruginosa ATCC 27853, 24 h, 37 °C, >90% growth inhibition): > 1280 * > 1280 µM; Minimal bactericidal concentration (*MBC) ([9]; 99.9% reduction): > 1280 * > 1280 µM; Minimal inhibitory concentration (MIC) [9, 24]: > 1280 * > 1280 µM; inhibition at 1280 µM [19]: 17 to 22%; inhibition at 1280 µM ([12]; Pseudomonas aeruginosa, PAO1, read-out: inhibition of adhesion to stainless steel): 17 to 22%; reduction of adhesion to polystyrene [20]: did not reduce the adhesion; reduction of adhesion to polystyrene [21]: did not reduce the adhesion; reduction of adhesion to glass [22]: approximately 20%; biofilm destruction [23]: approximately 40%; mutagenicity index (MR) ([17]; base pair substitution type mutations, MR >= 1.7 indicates mutagenic potential): < 1.7; mutagenicity index (MR) ([18]; reading frame shift type mutation, MR >= 1.7 indicates mutagenic potential): above 1.7
